Data reported in patent publication US10392347B2, “2,4-dihydroxy-nicotinamides as APJ agonists” (BRISTOL-MYERS SQUIBB COMPANY, priority 2015, dated 2019).
Where two headings read alike, the source gives them in different places.

Biological target: T1, human APJ receptor (Homo sapiens, UniProt P35414)
T1 construct: expressed in transfected cells
T1 sequence (P35414 1-380): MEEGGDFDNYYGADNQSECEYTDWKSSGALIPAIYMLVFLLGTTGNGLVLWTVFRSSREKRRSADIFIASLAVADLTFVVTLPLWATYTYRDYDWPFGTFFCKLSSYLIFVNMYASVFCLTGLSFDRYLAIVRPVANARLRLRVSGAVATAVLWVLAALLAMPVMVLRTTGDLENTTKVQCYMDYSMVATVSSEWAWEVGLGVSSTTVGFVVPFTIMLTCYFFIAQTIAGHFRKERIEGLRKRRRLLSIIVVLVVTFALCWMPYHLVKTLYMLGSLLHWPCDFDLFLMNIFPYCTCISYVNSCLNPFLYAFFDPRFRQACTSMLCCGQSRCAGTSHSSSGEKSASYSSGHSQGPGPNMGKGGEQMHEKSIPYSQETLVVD
Test: Intracellular cAMP accumulation assay (APJ hcAMP, HTRF)
Format: cell-based
Settings: HEK293 cells stably expressing human APJ
Experimental: Intracellular cAMP Accumulation Assay
HEK293 cells stably expressing human APJ receptor were used to assess the activity of compounds. Cultured cells were detached and resuspended in the cAMP Homogeneous Time-Resolved Fluorescence (HTRF) assay buffer (Cisbio cat; #62AM4PEJ). […] Serial dilutions of a compound together with assay buffer containing […] and 2 μM forskolin were added to each well containing 5,000 cells and incubated for 30 minutes at room temperature. Subsequently, cAMP D2 reagent was added in the lysis buffer followed by the EuK antibody (Cisbio; cat #62AM4PEJ) and incubated for 60 min. The fluorescence emission ratio was measured using fluorometer. The intracellular cAMP concentrations (compound-stimulated inhibition of forskolin-mediated cAMP production) were calculated by extrapolation from a standard curve using known cAMP concentrations. The EC50 values were obtained by fitting the data to a sigmoidal concentration-response curve with variable slope.
The EC50 value of each compound is presented at the end of the example description.
The biological activity of the exemplified compounds of this invention determined by the assay described above is shown at the end of each example.

[1] = Table 2, forskolin-stimulated cAMP, read-out: APJ cAMP EC50
[2] = Table 1, forskolin-stimulated cAMP, read-out: APJ cAMP EC50

SMILES	EC50 [2] [nM]	other results
CCCCc1nc(O)c(C(=O)N2CCCC2c2ccccn2)c(O)c1-c1c(OC)cccc1OC (racemic) [Example 8, 6-butyl-5-(2,6-dimethoxyphenyl)-3-[2-(pyridin-2-yl)pyrrolidine-1-carbonyl]pyridine-2,4-diol]		EC50 [1]: 0.01 to 10 nM
CCCCc1nc(O)c(C(=O)N2CCC(c3nc(-c4cc(C)c(OC)cc4Cl)c(C)s3)C2)c(O)c1-c1c(OC)cccc1OC (racemic) [Example 9, 6-butyl-3-{3-[4-(2-chloro-4-methoxy-5-methylphenyl)-5-methyl-1,3-thiazol-2-yl]pyrrolidine-1-carbonyl}-5-(2,6-dimethoxyphenyl)pyridine-2,4-diol]		EC50 [1]: 0.01 to 10 nM
CCCCc1nc(O)c(C(=O)N2CCC(c3cccc(Cl)c3)C2)c(O)c1-c1c(OC)cccc1OC (single isomer, unassigned) [Example 37, 6-butyl-3-[3-(3-chlorophenyl)pyrrolidine-1-carbonyl]-5-(2,6-dimethoxyphenyl)pyridine-2,4-diol]		EC50 [1]: 0.01 to 10 nM
CCCCc1nc(O)c(C(=O)N2CCC(c3cccc(Cl)c3)C2)c(O)c1-c1c(OC)cccc1OC (single isomer, unassigned) [Example 38, 6-butyl-3-[3-(3-chlorophenyl)pyrrolidine-1-carbonyl]-5-(2,6-dimethoxyphenyl)pyridine-2,4-diol]		EC50 [1]: 0.01 to 10 nM
CCCCc1nc(O)c(C(=O)N2CCC(c3ccc(F)cc3)C2)c(O)c1-c1c(OC)cccc1OC (single isomer, unassigned) [Example 39, 6-butyl-5-(2,6-dimethoxyphenyl)-3-[3-(4-fluorophenyl)pyrrolidine-1-carbonyl]pyridine-2,4-diol]		EC50 [1]: 0.01 to 10 nM
CCCCc1nc(O)c(C(=O)N2CCC(c3ccc(F)cc3)C2)c(O)c1-c1c(OC)cccc1OC (single isomer, unassigned) [Example 40, 6-butyl-5-(2,6-dimethoxyphenyl)-3-[3-(4-fluorophenyl)pyrrolidine-1-carbonyl]pyridine-2,4-diol]		EC50 [1]: 0.01 to 10 nM
CCCCc1nc(O)c(C(=O)N2CCC(c3ccc(Cl)cn3)C2)c(O)c1-c1c(OC)cccc1OC (single isomer, unassigned) [Example 74, (6-butyl-5-(2,6-dimethoxyphenyl)-2,4-dihydroxypyridin-3-yl)(3-(5-chloropyridin-2-yl)pyrrolidin-1-yl)methanone]		EC50 (read-out: Human APJ cAMP EC50 Potency range): 0.01 to 10 nM
CCNCc1nc(O)c(C(=O)N2CCC(c3cccc(F)c3)C2)c(O)c1-c1c(OC)cccc1OC (single isomer, unassigned) [Example 149, 5-(2,6-dimethoxyphenyl)-6-[(ethylamino)methyl]-3-[3-(3-fluorophenyl)pyrrolidine-1-carbonyl]pyridine-2,4-diol]		EC50 (read-out: Human cAMP Potency range): 100 to 300 nM
CCCCc1nc(O)c(C(=O)N2CCN(c3ccc(NC(=O)OC)cc3)CC2)c(O)c1-c1c(OC)cccc1OC [Example 10, methyl N-(4-{4-[6-butyl-5-(2,6-dimethoxyphenyl)-2,4-dihydroxypyridine-3-carbonyl]piperazin-1-yl}phenyl)carbamate]	10 to 100	
CCCCc1nc(O)c(C(=O)N2CCN(c3ncccc3C(F)(F)F)CC2)c(O)c1-c1c(OC)cccc1OC [Example 11, 6-butyl-5-(2,6-dimethoxyphenyl)-3-{4-[3-(trifluoromethyl)pyridin-2-yl]piperazine-1-carbonyl}pyridine-2,4-diol]	10 to 100	
CCCCc1nc(O)c(C(=O)N2CCN(c3ccccc3OC)CC2)c(O)c1-c1c(OC)cccc1OC [Example 12, 6-butyl-5-(2,6-dimethoxyphenyl)-3-[4-(2-methoxyphenyl)piperazine-1-carbonyl]pyridine-2,4-diol]	0.01 to 10	
CCCCc1nc(O)c(C(=O)N2CCN(c3nccc(C(F)(F)F)n3)CC2)c(O)c1-c1c(OC)cccc1OC [Example 13, 6-butyl-5-(2,6-dimethoxyphenyl)-3-{4-[4-(trifluoromethyl)pyrimidin-2-yl]piperazine-1-carbonyl}pyridine-2,4-diol]	10 to 100	
CCCCc1nc(O)c(C(=O)N2CCC(Cc3ccccc3)CC2)c(O)c1-c1c(OC)cccc1OC [Example 14, 3-(4-benzylpiperidine-1-carbonyl)-6-butyl-5-(2,6-dimethoxyphenyl)pyridine-2,4-diol]	0.01 to 10	
CCCCc1nc(O)c(C(=O)N(C)CCc2ccccn2)c(O)c1-c1c(OC)cccc1OC [Example 15, 6-butyl-5-(2,6-dimethoxyphenyl)-2,4-dihydroxy-N-methyl-N-[2-(pyridin-2-yl)ethyl]pyridine-3-carboxamide]	0.01 to 10	
CCCCc1nc(O)c(C(=O)N2CCN(C(c3ccccc3)c3ccccc3)CC2)c(O)c1-c1c(OC)cccc1OC [Example 16, 6-butyl-5-(2,6-dimethoxyphenyl)-3-[4-(diphenylmethyl)piperazine-1-carbonyl]pyridine-2,4-diol]	0.01 to 10	
CCCCc1nc(O)c(C(=O)N2CCC(c3[nH]cnc3C)CC2)c(O)c1-c1c(OC)cccc1OC [Example 17, 6-butyl-5-(2,6-dimethoxyphenyl)-3-[4-(4-methyl-1H-imidazol-5-yl)piperidine-1-carbonyl]pyridine-2,4-diol]	10 to 100	
CCCCc1nc(O)c(C(=O)N2CCN(c3ccc(OC)cc3)CC2)c(O)c1-c1c(OC)cccc1OC [Example 18, 6-butyl-5-(2,6-dimethoxyphenyl)-3-[4-(4-methoxyphenyl)piperazine-1-carbonyl]pyridine-2,4-diol]	10 to 100	
CCCCc1nc(O)c(C(=O)N2CCC(c3ccccc3OC)CC2)c(O)c1-c1c(OC)cccc1OC [Example 19, 6-butyl-5-(2,6-dimethoxyphenyl)-3-[4-(2-methoxyphenyl)piperidine-1-carbonyl]pyridine-2,4-diol]	10 to 100	
CCCCc1nc(O)c(C(=O)N2CCC(c3cc(-c4ccco4)n[nH]3)CC2)c(O)c1-c1c(OC)cccc1OC [Example 20, 6-butyl-5-(2,6-dimethoxyphenyl)-3-{4-[3-(furan-2-yl)-1H-pyrazol-5-yl]piperidine-1-carbonyl}pyridine-2,4-diol]	10 to 100	
CCCCc1nc(O)c(C(=O)N2CCC(c3ccc(C(N)=O)cc3)CC2)c(O)c1-c1c(OC)cccc1OC [Example 24, 4-{1-[6-butyl-5-(2,6-dimethoxyphenyl)-2,4-dihydroxypyridine-3-carbonyl]piperidin-4-yl}benzamide]	10 to 100	

The next lines start with results.

EC50 [2] [nM]	SMILES	other results
100 to 300	CCCCc1nc(O)c(C(=O)N(C)CCCCc2ccccc2)c(O)c1-c1c(OC)cccc1OC [Example 2, 6-butyl-5-(2,6-dimethoxyphenyl)-2,4-dihydroxy-N-methyl-N-(4-phenylbutyl)pyridine-3-carboxamide]	
100 to 300	CCCCc1nc(O)c(C(=O)N2CCN(c3nccn3C)CC2)c(O)c1-c1c(OC)cccc1OC [Example 3, 6-butyl-5-(2,6-dimethoxyphenyl)-3-[4-(1-methyl-1H-imidazol-2-yl)piperazine-1-carbonyl]pyridine-2,4-diol]	
100 to 300	CCCCc1nc(O)c(C(=O)N2CCC(O)(c3cccnc3)CC2)c(O)c1-c1c(OC)cccc1OC [Example 4, 6-butyl-5-(2,6-dimethoxyphenyl)-3-[4-hydroxy-4-(pyridin-3-yl)piperidine-1-carbonyl]pyridine-2,4-diol]	
10 to 100	CCCCc1nc(O)c(C(=O)N2CCC(c3nc(CCC)no3)CC2)c(O)c1-c1c(OC)cccc1OC [Example 5, 6-butyl-5-(2,6-dimethoxyphenyl)-3-[4-(3-propyl-1,2,4-oxadiazol-5-yl)piperidine-1-carbonyl]pyridine-2,4-diol]	
10 to 100	CCCCc1nc(O)c(C(=O)N2CCN(c3ccc(Cl)cn3)CC2)c(O)c1-c1c(OC)cccc1OC [Example 6, 6-butyl-3-[4-(5-chloropyridin-2-yl)piperazine-1-carbonyl]-5-(2,6-dimethoxyphenyl)pyridine-2,4-diol]	
100 to 300	CCCCc1nc(O)c(C(=O)N2CCN(c3ccc(OCCOC)cc3)CC2)c(O)c1-c1c(OC)cccc1OC [Example 7, 6-butyl-5-(2,6-dimethoxyphenyl)-3-{4-[4-(2-methoxyethoxy)phenyl]piperazine-1-carbonyl}pyridine-2,4-diol]	
100 to 300	CCCCc1nc(O)c(C(=O)N2CCN(c3cccnn3)CC2)c(O)c1-c1c(OC)cccc1OC [Example 21, 6-butyl-5-(2,6-dimethoxyphenyl)-3-[4-(pyridazin-3-yl)piperazine-1-carbonyl]pyridine-2,4-diol]	
100 to 300	CCCCc1nc(O)c(C(=O)N2CCN(c3ccncc3)CC2)c(O)c1-c1c(OC)cccc1OC [Example 22, 6-butyl-5-(2,6-dimethoxyphenyl)-3-[4-(pyridin-4-yl)piperazine-1-carbonyl]pyridine-2,4-diol]	
10 to 100	CCCCc1nc(O)c(C(=O)N2CCC(c3ccccc3Cl)CC2)c(O)c1-c1c(OC)cccc1OC [Example 23, 6-butyl-3-[4-(2-chlorophenyl)piperidine-1-carbonyl]-5-(2,6-dimethoxyphenyl)pyridine-2,4-diol]	
